Reference: US20220306695A1, “COMPSTATIN ANALOGUES AND THEIR MEDICAL USES” (priority 2019, published 2022)
Read-outs that look alike come from different tables or passages of the source. Positions of bridges follow the written chain, without caps; N, C: chain ends. Non-standard residues stand in square brackets, D forms with d. Residues, ends and D or L forms follow the SMILES beside them. Sar = CNCC(=O)O

Key:
[1] = system: classical complement pathway; experiment: In vitro haemolysis assay (inhibition of classical complement pathway); assay type: cell-based, human
Summary of the method: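 Serially diluted compound (9 points) was preincubated 15 min at room temperature with diluted human serum, titrated per batch to give 70-90% maximal haemolysis, in Tris/casein buffer pH 7.4 with Mg2+/Ca2+. Antibody-sensitized sheep erythrocytes were then added for 30 min at 37° C, and the reaction was stopped with EDTA. Haemolysis was read at A405, with IC50 from 4PL fit.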

[2] = Solubility test at 10 mg/mL (visual inspection and light scattering); assay type: physicochemical; settings: for Solubility, Condition 1 Acetate pH 4: 10 mg/mL compound in 100 mM acetate pH 4; for Solubility, Condition 2 Acetate pH 5: 10 mg/mL compound in 100 mM acetate pH 5; for Solubility, Condition 3 Phosphate pH 6: 10 mg/mL compound in 100 mM phosphate pH 6; for Solubility, Condition 4 Phosphate pH 7: 10 mg/mL compound in 100 mM phosphate pH 7; for Solubility, Condition 5 Phosphate pH 7.5: 10 mg/mL compound in 100 mM phosphate pH 7.5
Description: The solubility of compounds was assessed by measuring light scattering over a pH interval from pH 4 to pH 7.5.
Compounds were dissolved in a stock solution of 20 mg/mL in H2O at pH 2.5 or pH 10.
These stock solutions were diluted 1:1 with 200 mM buffered solution to reach a final solution of 10 mg/mL compound in 100 mM buffer. The 5 investigated conditions were (1) acetate pH 4.0, (2) acetate pH 5.0, (3) phosphate pH 6.0, (4) phosphate pH 7 and (5) phosphate pH 7.5.
Visual inspection included manually checking the 96 well plate for wells that are clear or non-clear. In addition to this a picture of the 96 well plate is taken.
Absorbance was measured at four wavelengths: 280 nm, 325 nm, 340 nm and 360 nm in an UV transparent 96 well microplate in a SpectraMax 190 microplate reader (Molecular Devices).
The criteria for this was a combination of visual inspection and light scattering not exceeding 0.1 AU, where values below 0.1 AU are good in visually clear samples. […]

[3] = Table 3, human serum, sensitized sheep red blood cells, read-out: IC50[nM], in vitro analysis of inhibition of hemolysis

SMILES | IC50 [1, 3] [nM] | Solubility, Condition 1 Acetate pH 4 [2] | Solubility, Condition 2 Acetate pH 5 [2] | Solubility, Condition 3 Phosphate pH 6 [2] | Solubility, Condition 4 Phosphate pH 7 [2] | Solubility, Condition 5 Phosphate pH 7.5 [2] | IC50 ([1]; Table 4, valine 3 versus isoleucine 3 pairs, read-out: CP hemolysis IC50) [nM]
CC[C@H](C)[C@H](NC(C)=O)C(=O)N[C@H]1CSSC[C@@H](C(=O)N[C@@H](CCC(=O)O)C(=O)NCC(=O)N[C@@H](CCC(=O)O)C(N)=O)NC(=O)[C@H](CCCNC(=N)N)NC(=O)[C@H](Cc2c[nH]cn2)NC(=O)[C@H](CCC(=O)O)NC(=O)CNC(=O)[C@H](Cc2c[nH]c3ccccc23)NC(=O)[C@H](CC(=O)O)NC(=O)[C@H](CCC(N)=O)NC(=O)[C@H](Cc2c[nH]c3ccccc23)NC(=O)[C@H]([C@@H](C)CC)NC1=O [Compound 27] (Ac-ICIWQDWGEHRCEGE-NH2; disulfide 2-12) | < 100 | − (denotes lack of solubility at the given condition, as UV absorbance at 340 nm exceeds 0.1 AU and/or it is visibly turbid or contains particles.) | − (denotes lack of solubility at the given condition, as UV absorbance at 340 nm exceeds 0.1 AU and/or it is visibly turbid or contains particles.) | − (denotes lack of solubility at the given condition, as UV absorbance at 340 nm exceeds 0.1 AU and/or it is visibly turbid or contains particles.) | + (denotes solubility at the given condition, as determined by UV absorbance being less than 0.1 AU at 340 nm and the sample being clear when manually inspected.) | + (denotes solubility at the given condition, as determined by UV absorbance being less than 0.1 AU at 340 nm and the sample being clear when manually inspected.) | 
CC[C@H](C)[C@H](NC(=O)[C@H](C)NC(=O)[C@H](CO)NC(=O)CNC(=O)[C@H](CCC(=O)O)NC(C)=O)C(=O)N[C@H]1CSSC[C@@H](C(=O)N(C)CC(=O)N[C@@H](CCC(=O)O)C(N)=O)NC(=O)[C@H](CCCNC(=N)N)NC(=O)[C@H](Cc2c[nH]cn2)NC(=O)[C@H](CCC(=O)O)NC(=O)CNC(=O)[C@H](Cc2c[nH]c3ccccc23)NC(=O)[C@H](CC(=O)O)NC(=O)[C@H](CCC(N)=O)NC(=O)[C@H](Cc2c[nH]c3ccccc23)NC(=O)[C@H]([C@@H](C)CC)NC1=O [Compound 28] (Ac-EGSAICIWQDWGEHRC[Sar]E-NH2; disulfide 6-16) | < 100 | + (denotes solubility at the given condition, as determined by UV absorbance being less than 0.1 AU at 340 nm and the sample being clear when manually inspected.) | + (denotes solubility at the given condition, as determined by UV absorbance being less than 0.1 AU at 340 nm and the sample being clear when manually inspected.) | + (denotes solubility at the given condition, as determined by UV absorbance being less than 0.1 AU at 340 nm and the sample being clear when manually inspected.) | + (denotes solubility at the given condition, as determined by UV absorbance being less than 0.1 AU at 340 nm and the sample being clear when manually inspected.) | + (denotes solubility at the given condition, as determined by UV absorbance being less than 0.1 AU at 340 nm and the sample being clear when manually inspected.) | 88
CC[C@H](C)[C@@H]1NC(=O)[C@@H](NC(=O)[C@@H](NC(=O)[C@H](CCC(=O)O)NC(=O)CNC(=O)[C@H](CCC(=O)O)NC(C)=O)[C@@H](C)CC)CSSC[C@@H](C(=O)N[C@H](C(N)=O)[C@@H](C)O)NC(=O)[C@H](CCCNC(=N)N)NC(=O)[C@H](Cc2c[nH]cn2)NC(=O)[C@H](CCC(=O)O)NC(=O)CNC(=O)[C@H](Cc2c[nH]c3ccccc23)NC(=O)[C@H](CC(=O)O)NC(=O)[C@H](CCC(N)=O)NC(=O)[C@H](Cc2c[nH]c3ccccc23)NC1=O [Compound 30] (Ac-EGEICIWQDWGEHRCT-NH2; disulfide 5-15) | < 100 | − (denotes lack of solubility at the given condition, as UV absorbance at 340 nm exceeds 0.1 AU and/or it is visibly turbid or contains particles.) | − (denotes lack of solubility at the given condition, as UV absorbance at 340 nm exceeds 0.1 AU and/or it is visibly turbid or contains particles.) | − (denotes lack of solubility at the given condition, as UV absorbance at 340 nm exceeds 0.1 AU and/or it is visibly turbid or contains particles.) | + (denotes solubility at the given condition, as determined by UV absorbance being less than 0.1 AU at 340 nm and the sample being clear when manually inspected.) | + (denotes solubility at the given condition, as determined by UV absorbance being less than 0.1 AU at 340 nm and the sample being clear when manually inspected.) | 
CC[C@H](C)[C@@H]1NC(=O)[C@@H](NC(=O)[C@@H](NC(=O)[C@H](CCC(=O)O)NC(=O)[C@H](CO)NC(=O)[C@H](CCC(=O)O)NC(C)=O)[C@@H](C)CC)CSSC[C@@H](C(=O)N[C@H](C(N)=O)[C@@H](C)O)NC(=O)[C@H](CCCNC(=N)N)NC(=O)[C@H](Cc2c[nH]cn2)NC(=O)[C@H](CCC(=O)O)NC(=O)CNC(=O)[C@H](Cc2c[nH]c3ccccc23)NC(=O)[C@H](CC(=O)O)NC(=O)[C@H](CCC(N)=O)NC(=O)[C@H](Cc2c[nH]c3ccccc23)NC1=O [Compound 31] (Ac-ESEICIWQDWGEHRCT-NH2; disulfide 5-15) | < 100 | + (denotes solubility at the given condition, as determined by UV absorbance being less than 0.1 AU at 340 nm and the sample being clear when manually inspected.) | + (denotes solubility at the given condition, as determined by UV absorbance being less than 0.1 AU at 340 nm and the sample being clear when manually inspected.) | + (denotes solubility at the given condition, as determined by UV absorbance being less than 0.1 AU at 340 nm and the sample being clear when manually inspected.) | + (denotes solubility at the given condition, as determined by UV absorbance being less than 0.1 AU at 340 nm and the sample being clear when manually inspected.) | + (denotes solubility at the given condition, as determined by UV absorbance being less than 0.1 AU at 340 nm and the sample being clear when manually inspected.) | 
CC[C@H](C)[C@@H]1NC(=O)[C@@H](NC(=O)[C@@H](NC(=O)[C@H](CCC(=O)O)NC(=O)[C@H](CO)NC(C)=O)[C@@H](C)CC)CSSC[C@@H](C(=O)N[C@H](C(=O)N[C@@H](CCC(=O)O)C(=O)N[C@@H](C)C(N)=O)[C@@H](C)O)NC(=O)[C@H](CCCNC(=N)N)NC(=O)[C@H](Cc2c[nH]cn2)NC(=O)[C@H](CCC(=O)O)NC(=O)CNC(=O)[C@H](Cc2c[nH]c3ccccc23)NC(=O)[C@H](CC(=O)O)NC(=O)[C@H](CCC(N)=O)NC(=O)[C@H](Cc2c[nH]c3ccccc23)NC1=O [Compound 32] (Ac-SEICIWQDWGEHRCTEA-NH2; disulfide 4-14) | < 100 | − (denotes lack of solubility at the given condition, as UV absorbance at 340 nm exceeds 0.1 AU and/or it is visibly turbid or contains particles.) | − (denotes lack of solubility at the given condition, as UV absorbance at 340 nm exceeds 0.1 AU and/or it is visibly turbid or contains particles.) | − (denotes lack of solubility at the given condition, as UV absorbance at 340 nm exceeds 0.1 AU and/or it is visibly turbid or contains particles.) | + (denotes solubility at the given condition, as determined by UV absorbance being less than 0.1 AU at 340 nm and the sample being clear when manually inspected.) | + (denotes solubility at the given condition, as determined by UV absorbance being less than 0.1 AU at 340 nm and the sample being clear when manually inspected.) | 
CC[C@H](C)[C@@H]1NC(=O)[C@@H](NC(=O)[C@@H](NC(=O)[C@H](CCC(=O)O)NC(C)=O)[C@@H](C)CC)CSSC[C@@H](C(=O)N[C@H](C(=O)N[C@@H](CCC(=O)O)C(N)=O)[C@@H](C)O)NC(=O)[C@H](CCCNC(=N)N)NC(=O)[C@H](Cc2c[nH]cn2)NC(=O)[C@H](CCC(=O)O)NC(=O)CNC(=O)[C@H](Cc2c[nH]c3ccccc23)NC(=O)[C@H](CC(=O)O)NC(=O)[C@H](CCC(N)=O)NC(=O)[C@H](Cc2c[nH]c3ccccc23)NC1=O [Compound 33] (Ac-EICIWQDWGEHRCTE-NH2; disulfide 3-13) | < 100 | − (denotes lack of solubility at the given condition, as UV absorbance at 340 nm exceeds 0.1 AU and/or it is visibly turbid or contains particles.) | − (denotes lack of solubility at the given condition, as UV absorbance at 340 nm exceeds 0.1 AU and/or it is visibly turbid or contains particles.) | + (denotes solubility at the given condition, as determined by UV absorbance being less than 0.1 AU at 340 nm and the sample being clear when manually inspected.) | + (denotes solubility at the given condition, as determined by UV absorbance being less than 0.1 AU at 340 nm and the sample being clear when manually inspected.) | + (denotes solubility at the given condition, as determined by UV absorbance being less than 0.1 AU at 340 nm and the sample being clear when manually inspected.) | 
